Tested on: LG0703-F948-PDC complex spheroid viability
Experiment: Anticancer human tumor LG0703-F948-PDC patient-derived lung adenocarcinoma cell line growth inhibition [RAS]
Conditions: for IC50: curve of first compound; for viability, T/C: stronger effect = lower value
Procedure, shortened: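 Agents were tested in combination matrices in half-log decrements from a top concentration at or near clinical Cmax (10 microM if undetermined). Targets were multi-cell spheroids of tumour lines plus HUVEC and MSC stromal cells.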

[1] = second compound 0.000949 µM, first compound 0.0316 µM
[2] = second compound 0.000949 µM, first compound 0.1 µM
[3] = second compound 0.000949 µM, first compound 0.316 µM
[4] = second compound 0.000949 µM, first compound 1 µM
[5] = second compound 0.000949 µM, first compound 3.16 µM
[6] = second compound 0.000949 µM, first compound 10 µM
[7] = second compound 0.003 µM, first compound 0.0316 µM
[8] = second compound 0.003 µM, first compound 0.1 µM
[9] = second compound 0.003 µM, first compound 0.316 µM
[10] = second compound 0.003 µM, first compound 1 µM
[11] = second compound 0.003 µM, first compound 3.16 µM
[12] = second compound 0.003 µM, first compound 10 µM
[13] = second compound 0.00949 µM, first compound 0.0316 µM
[14] = second compound 0.00949 µM, first compound 0.1 µM
[15] = second compound 0.00949 µM, first compound 0.316 µM
[16] = second compound 0.00949 µM, first compound 1 µM
[17] = second compound 0.00949 µM, first compound 3.16 µM
[18] = second compound 0.00949 µM, first compound 10 µM
[19] = second compound 0.03 µM, first compound 0.0316 µM
[20] = second compound 0.03 µM, first compound 0.1 µM
[21] = second compound 0.03 µM, first compound 0.316 µM
[22] = second compound 0.03 µM, first compound 1 µM
[23] = second compound 0.03 µM, first compound 3.16 µM
[24] = second compound 0.03 µM, first compound 10 µM
[25] = second compound 0.0949 µM, first compound 0.0316 µM
[26] = second compound 0.0949 µM, first compound 0.1 µM
[27] = second compound 0.0949 µM, first compound 0.316 µM
[28] = second compound 0.0949 µM, first compound 1 µM
[29] = second compound 0.0949 µM, first compound 3.16 µM
[30] = second compound 0.0949 µM, first compound 10 µM
[31] = second compound 0.3 µM, first compound 0.0316 µM
[32] = second compound 0.3 µM, first compound 0.1 µM
[33] = second compound 0.3 µM, first compound 0.316 µM
[34] = second compound 0.3 µM, first compound 1 µM
[35] = second compound 0.3 µM, first compound 3.16 µM
[36] = second compound 0.3 µM, first compound 10 µM
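Also: spheroids exposed to agents for 7 days.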
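For viability, T/C in this document: 100% = DMSO vehicle wells.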

For `CC(C)NCC(C(=O)N1CCN(c2ncnc3c2C(C)CC3O)CC1)c1ccc(Cl)cc1` (stereo not drawn) + CCn1c(-c2cccnc2C(C)OC)c2c3cc(ccc31)N1CCOC(CC(NC(=O)C(C(C)C)N(C)C(=O)C3(F)CCN(C(=O)C#CC(C)(C)N(C)C)CC3)C(=O)N3CCCC(N3)C(=O)OCC(C)(C)C2)C1, the IC50 (second compound 0.000949 µM) was 1800 nM, the IC50 (second compound 0.003 µM) was 2750 nM and the IC50 (second compound 0.00949 µM) was 858 nM. It also gave an IC50 (second compound 0.03 µM) of 1420 nM, an IC50 (second compound 0.0949 µM) of 511 nM and an IC50 (second compound 0.3 µM) of less than 31.6 nM. For the same molecule, the viability, T/C [1] was 103%, the viability, T/C [2] was 86% and the viability, T/C [3] was 73.6%. It also gave a viability, T/C [4] of 51.9%, a viability, T/C [5] of 47.4% and a viability, T/C [6] of 35.6%. The viability, T/C [7] was 104%, the viability, T/C [8] was 79.8% and the viability, T/C [9] was 77.9%. For the same molecule, the viability, T/C [10] was 56.3%, the viability, T/C [11] was 50.8% and the viability, T/C [12] was 38.4%. It also gave a viability, T/C [13] of 100%, a viability, T/C [14] of 98% and a viability, T/C [15] of 65.5%. It also gave a viability, T/C [16] of 49%, a viability, T/C [17] of 52.5% and a viability, T/C [18] of 39.3%. The viability, T/C [19] was 99.3%, the viability, T/C [20] was 86.4% and the viability, T/C [21] was 67.9%. The viability, T/C [22] was 53.3%, the viability, T/C [23] was 43.1% and the viability, T/C [24] was 35.1%. It also gave a viability, T/C [25] of 74.8%, a viability, T/C [26] of 66% and a viability, T/C [27] of 51.3%. For the same molecule, the viability, T/C [28] was 42.4%, the viability, T/C [29] was 42.5% and the viability, T/C [30] was 28.9%. For the same molecule, the viability, T/C [31] was 46.8%, the viability, T/C [32] was 38.6% and the viability, T/C [33] was 33.6%. For the same molecule, the viability, T/C [34] was 23.8%, the viability, T/C [35] was 27.4% and the viability, T/C [36] was 15.5%.
Work on `CC(C)n1nc(-c2ccc3oc(N)nc3c2)c2c(N)ncnc21` + CCn1c(-c2cccnc2C(C)OC)c2c3cc(ccc31)N1CCOC(CC(NC(=O)C(C(C)C)N(C)C(=O)C3(F)CCN(C(=O)C#CC(C)(C)N(C)C)CC3)C(=O)N3CCCC(N3)C(=O)OCC(C)(C)C2)C1 yielded an IC50 (second compound 0.000949 µM) of 6.03 nM, an IC50 (second compound 0.003 µM) of 8.31 nM and an IC50 (second compound 0.00949 µM) of 7.72 nM. For the same molecule, the IC50 (second compound 0.03 µM) was 8.1 nM, the IC50 (second compound 0.0949 µM) was 1.85 nM and the IC50 (second compound 0.3 µM) was less than 0.316 nM. For the same molecule, the viability, T/C (second compound 0.000949 µM, first compound 0.000316 µM) was 105%, the viability, T/C (second compound 0.000949 µM, first compound 0.001 µM) was 72.7% and the viability, T/C (second compound 0.000949 µM, first compound 0.00316 µM) was 64.1%. It also gave a viability, T/C (second compound 0.000949 µM, first compound 0.01 µM) of 43.5%, a viability, T/C [1] of 27% and a viability, T/C [2] of 19.9%. For the same molecule, the viability, T/C (second compound 0.003 µM, first compound 0.000316 µM) was 87%, the viability, T/C (second compound 0.003 µM, first compound 0.001 µM) was 79.4% and the viability, T/C (second compound 0.003 µM, first compound 0.00316 µM) was 65%. It also gave a viability, T/C (second compound 0.003 µM, first compound 0.01 µM) of 49.8%, a viability, T/C [7] of 25.5% and a viability, T/C [8] of 17.9%. For the same molecule, the viability, T/C (second compound 0.00949 µM, first compound 0.000316 µM) was 88.2%, the viability, T/C (second compound 0.00949 µM, first compound 0.001 µM) was 83.8% and the viability, T/C (second compound 0.00949 µM, first compound 0.00316 µM) was 59.9%. For the same molecule, the viability, T/C (second compound 0.00949 µM, first compound 0.01 µM) was 48.2%, the viability, T/C [13] was 28.7% and the viability, T/C [14] was 17.2%. It also gave a viability, T/C (second compound 0.03 µM, first compound 0.000316 µM) of 92.4%, a viability, T/C (second compound 0.03 µM, first compound 0.001 µM) of 87.6% and a viability, T/C (second compound 0.03 µM, first compound 0.00316 µM) of 68.8%. It also gave a viability, T/C (second compound 0.03 µM, first compound 0.01 µM) of 46.8%, a viability, T/C [19] of 23.9% and a viability, T/C [20] of 15.6%. The viability, T/C (second compound 0.0949 µM, first compound 0.000316 µM) was 67.4%, the viability, T/C (second compound 0.0949 µM, first compound 0.001 µM) was 57.5% and the viability, T/C (second compound 0.0949 µM, first compound 0.00316 µM) was 41.2%. For the same molecule, the viability, T/C (second compound 0.0949 µM, first compound 0.01 µM) was 36.8%, the viability, T/C [25] was 18.5% and the viability, T/C [26] was 13.2%. For the same molecule, the viability, T/C (second compound 0.3 µM, first compound 0.000316 µM) was 43.3%, the viability, T/C (second compound 0.3 µM, first compound 0.001 µM) was 36.8% and the viability, T/C (second compound 0.3 µM, first compound 0.00316 µM) was 29.3%. It also gave a viability, T/C (second compound 0.3 µM, first compound 0.01 µM) of 21.9%, a viability, T/C [31] of 11.7% and a viability, T/C [32] of 8.29%.
`CC(Nc1ccc2c(c1)OCCn1cc(N3C(=O)OCC3C(F)F)nc1-2)C(N)=O` (stereo not drawn) + CCn1c(-c2cccnc2C(C)OC)c2c3cc(ccc31)N1CCOC(CC(NC(=O)C(C(C)C)N(C)C(=O)C3(F)CCN(C(=O)C#CC(C)(C)N(C)C)CC3)C(=O)N3CCCC(N3)C(=O)OCC(C)(C)C2)C1 showed an IC50 (second compound 0.000949 µM) of 2580 nM, an IC50 (second compound 0.003 µM) of 2260 nM and an IC50 (second compound 0.00949 µM) of 2140 nM. The IC50 (second compound 0.03 µM) was 1210 nM, the IC50 (second compound 0.0949 µM) was 388 nM and the IC50 (second compound 0.3 µM) was less than 31.6 nM. The viability, T/C [1] was 101%, the viability, T/C [2] was 82.3% and the viability, T/C [3] was 89.8%. For the same molecule, the viability, T/C [4] was 63.6%, the viability, T/C [5] was 46.5% and the viability, T/C [6] was 24.1%. It also gave a viability, T/C [7] of 102%, a viability, T/C [8] of 86.6% and a viability, T/C [9] of 72.8%. The viability, T/C [10] was 61.8%, the viability, T/C [11] was 45.4% and the viability, T/C [12] was 32.6%. It also gave a viability, T/C [13] of 102%, a viability, T/C [14] of 83.2% and a viability, T/C [15] of 77.8%. For the same molecule, the viability, T/C [16] was 54.6%, the viability, T/C [17] was 52.7% and the viability, T/C [18] was 25.4%. It also gave a viability, T/C [19] of 100%, a viability, T/C [20] of 81.7% and a viability, T/C [21] of 60.8%. For the same molecule, the viability, T/C [22] was 56.5%, the viability, T/C [23] was 41.5% and the viability, T/C [24] was 23.3%. It also gave a viability, T/C [25] of 74.1%, a viability, T/C [26] of 64.8% and a viability, T/C [27] of 54.3%. The viability, T/C [28] was 35.2%, the viability, T/C [29] was 31.7% and the viability, T/C [30] was 19.9%. The viability, T/C [31] was 41.6%, the viability, T/C [32] was 32.1% and the viability, T/C [33] was 24.8%. It also gave a viability, T/C [34] of 18.8%, a viability, T/C [35] of 15.4% and a viability, T/C [36] of 10.1%.
`C[C@@H](NC(=O)c1ncnc(N)c1Cl)c1ncc(C(=O)Nc2cc(C(F)(F)F)c(Cl)cn2)s1` + CCn1c(-c2cccnc2C(C)OC)c2c3cc(ccc31)N1CCOC(CC(NC(=O)C(C(C)C)N(C)C(=O)C3(F)CCN(C(=O)C#CC(C)(C)N(C)C)CC3)C(=O)N3CCCC(N3)C(=O)OCC(C)(C)C2)C1 showed an IC50 (second compound 0.000949 µM) greater than 10000 nM, an IC50 (second compound 0.003 µM) greater than 10000 nM and an IC50 (second compound 0.00949 µM) greater than 10000 nM. For the same molecule, the IC50 (second compound 0.03 µM) was greater than 10000 nM, the IC50 (second compound 0.0949 µM) was greater than 10000 nM and the IC50 (second compound 0.3 µM) was less than 31.6 nM. It also gave a viability, T/C [1] of 87.6%, a viability, T/C [2] of 106% and a viability, T/C [3] of 118%. The viability, T/C [4] was 110%, the viability, T/C [5] was 102% and the viability, T/C [6] was 90.1%. The viability, T/C [7] was 106%, the viability, T/C [8] was 102% and the viability, T/C [9] was 85.5%. The viability, T/C [10] was 113%, the viability, T/C [11] was 103% and the viability, T/C [12] was 105%. The viability, T/C [13] was 94.1%, the viability, T/C [14] was 108% and the viability, T/C [15] was 91%. For the same molecule, the viability, T/C [16] was 103%, the viability, T/C [17] was 92.3% and the viability, T/C [18] was 87.7%. For the same molecule, the viability, T/C [19] was 99.6%, the viability, T/C [20] was 105% and the viability, T/C [21] was 88.4%. It also gave a viability, T/C [22] of 97%, a viability, T/C [23] of 107% and a viability, T/C [24] of 82.2%. The viability, T/C [25] was 74.4%, the viability, T/C [26] was 71.1% and the viability, T/C [27] was 81.7%. For the same molecule, the viability, T/C [28] was 78.3%, the viability, T/C [29] was 88.4% and the viability, T/C [30] was 65.9%. The viability, T/C [31] was 43.5%, the viability, T/C [32] was 42.9% and the viability, T/C [33] was 48.6%. It also gave a viability, T/C [34] of 54%, a viability, T/C [35] of 48.1% and a viability, T/C [36] of 37.5%.

Source: PubChem BioAssay AID2060890 (Molecular Pharmacology Branch, DTP, NCI, 2025)
